The record followed here is patent publication US5519116A, “Peptides representing permutations of the mastoparan sequence” (Enichem S.p.A., priority 1991, dated 1996).

For one test, the target named is rGOα. Nature of the test: GTPγS binding to rGOα to saturation. The arrangement: species or system rat. The settings on record: at 20°. (In general: Binding of GTPγS marks nucleotide exchange on a G protein.)
Test [1] addresses T1, rGOα (recombined Goα protein) (Rattus norvegicus, UniProt P59215).
T1 construct: made in house; host or cells: E. coli (plasmid pT7-7)
Nature of the test: GTPase activity assay: GTP hydrolyzed by rGOα reconstituted into phospholipid blisters. The format is biochemical. The note with it: for inhibition at 1000 µM: 1 mM concentration of peptide, read-out: inhibition of hydrolysis of GTP by rGOα; for IC50: inhibition of basal GTPase activity of rGOα, read-out: IC 50 (concentration necessary to achieve 50% inhibition); for EC50: stimulation of rGOα GTPase activity, read-out: concentration giving 50 % of maximum stimulation. The procedure: The activity of the peptides was determined by evaluating the quantity of GTP hydrolyzed in the presence of a recombined Goα protein, using the procedures published by Brandt et al., (1983), Biochemistry, 22, 4357-4362 and by Higashijima et al., (1987), J. Biol. Chem., 262, 757-761.
The rGOα was produced by the authors of the present invention by expression in E.coli of the cDNA of the α subunit of the Go protein present in the rat's brain, inserted in register in the bacterial plasmid pt7-7 (Tabor et al., 1985, Proc. Natl. Acad. Sci. USA, 82, 1074-1078).
Compared with natural GOα, rGOα has an N-terminal deletion of 11 amino acids, replaced by another 5 different amino acids because of the cloning strategy adopted. The molecular weight of rGOα is 38.6 Kd.
When the rGOα is reconstituted into phospholipid blisters (by incubation with a phospholipid mixture at 4° C. for 16 hours), its basal GTPase activity reduces to 0.02 min^-1, This experimental condition which approaches that of the natural protein, in the inactivity state, inserted into the cell membrane was chosen to evaluate the effect of the peptides on the hydrolysis of GTP by rGOα.
5 volumes of a solution of rGOα in 50 mM Hepes, pH 8, 1 mM EDTA, 1 mM DTT and 0.02% of Lubrol (HEDL) were mixed with 1 volume of the same buffer containing 0.84% of sodium cholate, 0.05% of dimyristoyl-L-α-phosphatidylcholine, 0.05% of phosphatidylethanolamine from bovine brain and 0.067% of phosphatidyl-serine from bovine brain (as described by Mousli et al., 1990, Immunol. Lett., 25, 355-358) and preincubated at 4° C. overnight.
An aliquot of 32 μl of this solution was incubated at 20° C. for 5 min in a final volume of 50 μl of HEDL containing 1.1 mM MgCl2 and 0.4 μM (γ^-32 p) GTP (10000-30000 cpm/pmol) and the respective peptide at the final concentrations indicated.
The reactions were terminated by adding 750 μl of a 5% suspension of vegetable charcoal in 20 mM phosphoric acid. After agitation and centrifuging, 400 μl of supernatant containing the radioactive phosphate were counted by liquid scintillation.

Peptide text beside a SMILES is read from it.

T1 sequence (P59215 13-354): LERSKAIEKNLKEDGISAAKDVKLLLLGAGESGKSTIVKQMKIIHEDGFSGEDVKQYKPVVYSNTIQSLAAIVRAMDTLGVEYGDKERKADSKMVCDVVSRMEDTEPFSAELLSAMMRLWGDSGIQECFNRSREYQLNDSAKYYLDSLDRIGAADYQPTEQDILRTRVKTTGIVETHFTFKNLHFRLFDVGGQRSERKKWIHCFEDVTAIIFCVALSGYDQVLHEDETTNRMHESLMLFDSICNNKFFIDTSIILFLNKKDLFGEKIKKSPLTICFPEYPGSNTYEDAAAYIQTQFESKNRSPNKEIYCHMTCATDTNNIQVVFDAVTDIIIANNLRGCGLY

For `Nc1nc2c(ncn2[C@@H]2O[C@H](COP(=O)(O)OP(=O)(O)OP(O)(O)=S)[C@@H](O)[C@H]2O)c(=O)[nH]1` [GTPγ S], the Kd (in general, the equilibrium constant for the complex coming apart) on rGOα turned out to be 0.0029 µM.
Turning to `CC[C@H](C)[C@H](N)C(=O)N[C@@H](CC(N)=O)C(=O)N[C@@H](CC(C)C)C(=O)N[C@@H](CCCCN)C(=O)N[C@@H](C)C(=O)N[C@@H](CC(C)C)C(=O)N[C@@H](C)C(=O)N[C@@H](C)C(=O)N[C@@H](CC(C)C)C(=O)N[C@@H](C)C(=O)N[C@@H](CCCCN)C(=O)N[C@@H](CCCCN)C(=O)N[C@H](C(=O)N[C@@H](CC(C)C)C(N)=O)[C@@H](C)CC` [Mastoparan, mastoparan], the “increase of GTP hydrolysis” value in test [1] (1 mM of peptide (no additional effect beyond this concentration), 20° C., 5 min) stood at 5 times. Moreover, the “effect on the GTPase activity of rGOα (capacity to activate the protein rGoα)” value in test [1] (summary in words) was “stimulate the GTPase activity of rGOα in a manner dependent on the concentration”.
For `CC[C@H](C)[C@H](NC(=O)[C@H](CC(C)C)NC(=O)[C@H](C)NC(=O)[C@H](CCCCN)NC(=O)[C@H](CC(C)C)NC(=O)[C@H](CC(N)=O)NC(=O)[C@H](CC(C)C)NC(=O)[C@H](C)NC(=O)[C@@H](NC(=O)[C@H](CCCCN)NC(=O)[C@@H](N)CC(C)C)[C@@H](C)CC)C(=O)N[C@@H](C)C(=O)N[C@@H](C)C(=O)N[C@@H](CCCCN)C(=O)O` [compound 2] (H-LKIALNLKALIAAK-OH), in test [1], the inhibition (commonly the drop in the measured response relative to a control, in per cent) at 1000 µM is over 90% and the IC50 amounted to 130 µM.
On to `CC[C@H](C)[C@H](NC(=O)[C@H](C)NC(=O)[C@H](CC(C)C)NC(=O)[C@H](C)N)C(=O)N[C@@H](CCCCN)C(=O)N[C@@H](CC(C)C)C(=O)N[C@H](C(=O)N[C@@H](CC(C)C)C(=O)N[C@@H](CC(N)=O)C(=O)N[C@@H](CC(C)C)C(=O)N[C@@H](CCCCN)C(=O)N[C@@H](C)C(=O)N[C@@H](CCCCN)C(=O)N[C@@H](C)C(=O)O)[C@@H](C)CC` [peptide 1] (H-ALAIKLILNLKAKA-OH), for which, in test [1], the inhibition at 1000 µM is 75% and the IC50 is 215 µM.
Consider `CC[C@H](C)[C@H](N)C(=O)N[C@@H](CC(N)=O)C(=O)N[C@@H](CC(C)C)C(=O)N[C@@H](C)C(=O)N[C@@H](C)C(=O)N[C@@H](CC(C)C)C(=O)N[C@@H](CCCCN)C(=O)N[C@@H](CCCCN)C(=O)N[C@@H](CC(C)C)C(=O)N[C@@H](C)C(=O)N[C@@H](C)C(=O)N[C@@H](CCCCN)C(=O)N[C@H](C(=O)N[C@@H](CC(C)C)C(=O)O)[C@@H](C)CC` [peptide 4] (H-INLAALKKLAAKIL-OH), for which, in test [1] (20° C., 5 min), the EC50 worked out at 500 µM.
As to `CC[C@H](C)[C@H](NC(=O)[C@H](C)NC(=O)[C@H](CCCCN)NC(=O)[C@H](CC(C)C)NC(=O)[C@H](CCCCN)NC(=O)[C@H](C)NC(=O)[C@H](CC(N)=O)NC(=O)[C@@H](N)CC(C)C)C(=O)N[C@@H](C)C(=O)N[C@@H](CC(C)C)C(=O)N[C@@H](C)C(=O)N[C@@H](CC(C)C)C(=O)N[C@H](C(=O)N[C@@H](CCCCN)C(=O)O)[C@@H](C)CC` [peptide 7] (H-LNAKLKAIALALIK-OH), in test [1], the inhibition at 1000 µM was 63% and the IC50 came out at 600 µM.
`CC[C@H](C)[C@H](NC(=O)[C@H](CC(C)C)NC(=O)[C@H](C)NC(=O)[C@H](CCCCN)NC(=O)[C@H](C)NC(=O)[C@H](CC(C)C)NC(=O)[C@H](C)NC(=O)[C@H](CC(C)C)NC(=O)[C@@H](NC(=O)[C@@H](N)CC(N)=O)[C@@H](C)CC)C(=O)N[C@@H](CCCCN)C(=O)N[C@@H](C)C(=O)N[C@@H](CC(C)C)C(=O)N[C@@H](CCCCN)C(=O)O` [peptide 8] (H-NILALAKALIKALK-OH): the EC50 in test [1] (20° C., 5 min) came out at 250 µM.
